Results published in patent US20040053872A1, “New sequences” (priority 2000, published 2004).
pIC50: −log10 of the molar value. Where two headings read alike, the source gives them in different places. Strand notation (5' to 3'): a small letter for the sugar, then the base; units joined by * are phosphorothioate-linked, units joined directly phosphodiester-linked; [ ] holds rarer units or linkages, { } end groups; capitals alone tell only the bases. r = 2'-OH (RNA)

Legend:
[1] = biological target: T1, recombinant HIV-1 RT K103N/E478Q (Human immunodeficiency virus type 1 group M subtype B, UniProt P03366, E1077Q/K702N); assay: RT assay: inhibition of RNA dependent DNA polymerisation (modified Lenti RT assay); format: biochemical; conditions: read-out: IC50 of indicated inhibitor in RT assay
T1 construct: performed by recombinant HIV-1 RT:s with defined
Description: (§1) The flourimetric RT assay (Cavidi® Lenti RT activity kit), available from Cavidi Tech, Uppsala, Sweden, was used for the determination of RT activity. In short, poly(rA) covalently bound to the wells of a 96 well microtiter plate serves as template for the incorporation of 5-bromodeoxyuridine 5′-triphosphate (BrdUTP) during the reverse transcription step at 33° C. The amount of bromodeoxyuridine monophosphate (BrdUMP) incorporated into DNA is detected with an alkaline phosphatase (Ap) conjugated, anti-BrdU monoclonal antibody. An Ap substrate, 4-methylumbelliferyl phosphate, is finally used for fluorimetric product detection.
(§2) (i) Protocol for determination of inhibition of RNA dependent DNA polymerisation: The inhibition studies were performed in a modified Lenti RT assay. […] The enzyme reaction was initiated by addition of 100 μl aliquots of the enzyme/inhibitor mixture to each well of a microtiter plate containing 100 μl RT reaction mixture per well. The polymerase reaction was allowed to proceed for 3 hours at 33° C., whereupon the reaction was terminated by a wash of the plate. […] The amount of RT used was standardised to an activity corresponding to 90-130 pg (7-10×10^−16 mol) reference HIV-1 RT per well
(§3) The capacity of the indicated substances to inhibit the enzymes in a panel of recombinant HIV 1 subtype B RTs was studied according to “Protocol for determination of inhibition of RNA dependent DNA polymerisation” (protocol (i) above). The final nucleotide substrate (BrdUTP) concentration was 0.35 μM, and the primer (odT22) amount was 0.03 ng per well.

[2] = biological target: T2, recombinant HIV-1 RT L100I (Human immunodeficiency virus type 1 group M subtype B, UniProt P03366, L699I); assay: as above; format: biochemical; conditions: read-out: IC50 of indicated inhibitor in RT assay
T2 construct: performed by recombinant HIV-1 RT:s with defined
Description: as §1, §2, §3

[3] = biological target: T3, recombinant HIV-1 RT T215Y (Human immunodeficiency virus type 1 group M subtype B, UniProt P03366, T814Y); assay: as above; format: biochemical; conditions: read-out: IC50 of indicated inhibitor in RT assay
T3 construct: performed by recombinant HIV-1 RT:s with defined
Description: as §1, §2, §3

[4] = biological target: T1, recombinant HIV-1 RT K103N/E478Q; format: biochemical; conditions: second strand DNA synthesis, preincubation 30 minutes at 33° C., 3 hours, read-out: IC50 of indicated inhibitor in DNAp assay
Excerpt: The flourimetric DNA-polymerase assay used is available from Cavidi Tech AB, Uppsala, Sweden. It is based on a short DNA primer analogous to a part of the tRNA^Lys3 sequence. The template is a single stranded deoxynucleotide template with part of the sequence complementary to the primer. The enzyme reaction is dependent on all four deoxynucleotide bases. The thymidine triphosphate is, however, replaced by BrdUTP. The amount of BrdUMP incorporated into DNA during the polymerase reaction is detected with an alkaline phosphatase (Ap) conjugated anti-BrdU monoclonal antibody. An Ap substrate, 4-methylumbelliferyl phosphate, is finally used for fluorimetric product detection.
(ii) Protocol for determination of inhibition of second strand synthesis on a variable DNA template: The inhibition studies were performed in a modified DNA polymerase assay. The inhibitors were serially diluted in five steps, enzyme dilution was added and the enzyme/inhibitor mixtures were incubated for 30 minutes at 33° C. The enzyme reaction was initiated by addition of 75 μl aliquots of the enzyme/inhibitor mixture to each well of a microtiter plate containing 75 μl DNA polymerase reaction mixture per well. The polymerase reaction was allowed to proceed for 3 hours at 33° C. whereupon the reaction was terminated by a wash of the plate. […] The amount of RT used was standardised to an activity corresponding to 40-60 pg (3.3-5.0×10^−16 mol) reference HIV-1 RT per well.
The capacity of the indicated substances to inhibit each enzyme in a panel of recombinant HIV 1 subtype B RTs was studied according to “Protocol for determination of inhibition of second strand synthesis on variable DNA template” (protocol (ii) above).

[5] = biological target: T4, recombinant HIV-1 RT E478Q (Human immunodeficiency virus type 1 group M subtype B, UniProt P03366, E1077Q); conditions: binding 90 min at 33° C.
T4 construct: performed by recombinant HIV-1 RT:s with defined
Description: (§4) (iii) Protocol for RT binding inhibition (BIC) assay: The study was performed in a modified DNA polymerase assay. The inhibitors were serially diluted in five steps, enzyme dilution was added and the enzyme/inhibitor mixtures were incubated for 30 minutes at 33° C. Aliquots of the enzyme/inhibitor mixture were transferred to each well of a microtiter plate containing either immobilised primer, or primer/template. The enzyme was allowed to bind to the immobilised polymer for 90 min at 33° C. The amount of RT used was standardised to an activity corresponding to 40-60 pg (3.3-5.0×10^−16 mol) reference HIV-1 RT per well. The plates were then washed to remove unbound enzyme whereupon the amount of bound enzyme was determined by addition of the appropriate reaction solution for polymerisation (i e a reaction solution devoid of primer for studies of primer binding and a reaction solution devoid of both primer and template for studies of binding to primed template). The polymerase reaction was allowed to proceed for 3 hours at 33° C., whereupon the reaction was terminated by a wash of the plate.
(§5) The capacity of the indicated substances to inhibit the binding to primer or to primed DNA template of a panel of recombinant HIV 1 subtype B RTs was studied according to “Protocol for RT binding inhibition (BIC) assay” (protocol (iii) above).

[6] = biological target: T2, recombinant HIV-1 RT L100I; conditions: binding 90 min at 33° C.
Description: as §4, §5

[7] = tested on: panel of recombinant HIV 1 subtype B RTs; assay: RT assay: inhibition of RNA dependent DNA polymerisation, whole RT panel; format: biochemical; conditions: for pIC50: all RTs of the panel, summary of table 1, read-out: IC50, range over all RTs studied (reverse transcription)
Description: as §1
(i) Protocol for determination of inhibition of RNA dependent DNA polymerisation: The inhibition studies were performed in a modified Lenti RT assay. […]
The final nucleotide substrate (BrdUTP) concentration was 0.35 μM, and the primer (odT22) amount was 0.03 ng per well.

[8] = RT and inhibitor added directly to the assay mixture without preincubation
[9] = enzyme/inhibitor preincubated 30 minutes at 33° C., BrdUTP 0.35 μM, odT22 0.03 ng per well, 3 hours
[10] = immobilised primer, read-out: Inhibition of binding to primer (BIC50)
[11] = immobilised primer/template, read-out: Inhibition of binding to template/primer (BIC50)

Substance | pIC50 [1, 8] | pIC50 [1, 9] | pIC50 [2, 8] | pIC50 [2, 9] | pIC50 [3, 8] | pIC50 [3, 9] | pIC50 [4] | pIC50 [5, 10] | pIC50 [5, 11] | pIC50 [6, 10] | pIC50 [7] | Results with inhibitor added directly to the RT reaction mixture compared with the standard procedure ([7]; alternative procedure without pre-incubation) | pIC50 [6, 11]
substance 199: 35-mer RNA molecule having the sequence set out in SEQ ID NO:5; similar to SEQ ID NO:4 with some naturally occurring nucleotide derivatives (GCUCAGNCGGNAGAGCANCAGACUUUUAANCUGAN; RNA, backbone, methylation of C and the base at N not given here; naturally occurring modified nucleosides at n positions) | 8.01 | 8.00 | 8.13 | 8.00 | 8.03 | 7.96 | 7.29 | 8.15 | 7.85 | 8.15 | 7.92 to 8.22 | not significantly different | –
substance 198: 15-mer RNA phosphorothioate with the base sequence of tRNALys3 anticodon stem and loop, SEQ ID NO:7 (rC*rA*rG*rA*rC*rU*rU*rU*rU*rA*rA*rU*rC*rU*rG) [reference compound] | – | 5.96 | – | 6.35 | – | 6.47 | 6.00 | < 6.00 | < 6.00 | < 6.00 | 5.96 to 6.47 | – | < 6.00
